This note sets out measurements from patent US20070092467A1, “Oxyacetamide compounds useful for stimulating or inducing the growth and/or retarding the loss of keratin fibers” (L'OREAL, priority 2004, published 2007).

A value given as a limit tells only on which side of the number the result lay.

The term IC50 denotes the concentration needed to halve the response being measured. In general, inhibition refers to the relative decrease from the control value, in per cent.

The target in the first experiment is T1, PGF synthase (Homo sapiens, UniProt P42330).
T1 construct: made in house
T1 sequence (P42330 1-323): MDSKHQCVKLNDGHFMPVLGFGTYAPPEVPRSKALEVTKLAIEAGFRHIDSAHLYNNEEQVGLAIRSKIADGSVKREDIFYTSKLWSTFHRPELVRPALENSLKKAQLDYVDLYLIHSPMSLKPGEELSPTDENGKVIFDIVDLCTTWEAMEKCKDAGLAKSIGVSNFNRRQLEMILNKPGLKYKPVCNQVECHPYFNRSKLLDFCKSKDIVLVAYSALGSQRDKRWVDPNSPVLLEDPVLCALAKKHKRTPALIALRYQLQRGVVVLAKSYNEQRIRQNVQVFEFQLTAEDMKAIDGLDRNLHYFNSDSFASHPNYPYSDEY
In words: Test on PGF synthase (spectrophotometric, 340 nm, maximum reaction rate). Format: biochemical. Particulars: IC50fs; 37° C., pH 6.5; read-out: Inhibition of PGFS IC50. Here is the method: (§1) For the purposes of the test, this suspension is thawed and stored in ice.
0.950 mL of this buffer (brought to 37° C. beforehand) is introduced into the cuvette of a spectrophotometer (Perkin-Elmer, Lambda 2) thermostatically maintained at 37° C., the measuring wavelength of which is set at 340 nm. 0.05 mL of enzymatic suspension at 37° C. is introduced into the cuvette concomitantly with the recording (corresponding to a reduction in the optical density at 340 nm). The maximum reaction rate is recorded.
Turning to `O=C(COc1cccc(Cl)c1)NCc1ccco1` [Compound 23], the concentration for half-maximal inhibition (IC50) is > 50 µM.

Still in this experiment, the particulars now being: compound at 50 μM; read-out: Inhibition of PGFS % inhibition at 50 μM.
On to `O=C(COC1CCCCC1)NCc1ccccc1` [Compound 21], for which the inhibition at 50 µM was 24%.

Consider `O=C(COc1cccc(Cl)c1)NCc1ccco1` [Compound 23], for which the inhibition at 50 µM was 25%.

Turning to `O=C(COc1ccccc1)NCc1ccccc1` [Compound 24], the inhibition at 50 µM was 4%.

A further experiment addresses T2, type-1 15-PGDH (Homo sapiens, UniProt P15428).
T2 construct: made in house
T2 sequence (P15428 1-266): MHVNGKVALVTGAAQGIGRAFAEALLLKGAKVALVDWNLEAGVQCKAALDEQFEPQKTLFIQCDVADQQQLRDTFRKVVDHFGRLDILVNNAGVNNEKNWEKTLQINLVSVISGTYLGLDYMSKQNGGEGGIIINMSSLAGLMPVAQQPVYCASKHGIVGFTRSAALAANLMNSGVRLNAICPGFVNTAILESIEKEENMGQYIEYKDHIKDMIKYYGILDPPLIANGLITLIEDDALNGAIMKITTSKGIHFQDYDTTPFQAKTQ
Description: Test on type-1 15-PGDH (spectrophotometric, 340 nm, maximum reaction rate). Particulars: IC50dh; 37° C., pH 7.4; read-out: Inhibition of 15-PGDH IC50. The format is biochemical. The protocol:
1) Test on type-1 15-PGDH:
as §1
0.965 ml of this buffer (brought to 37° C. beforehand) is introduced into the cuvette of a spectrophotometer (Perkin-Elmer, Lambda 2) thermostatically maintained at 37° C., the measuring wavelength of which is set at 340 nm. 0.035 ml of enzymatic suspension at 37° C. is introduced into the cuvette concomitantly with the recording (corresponding to an increase in the optical density at 340 nm). The maximum reaction rate is recorded.
As for `O=C(COc1cccc(Cl)c1)NCc1ccco1` [Compound 23], the IC50 amounted to 16 µM.

Still in this experiment, the particulars now being: compound at 50 μM.
For `O=C(COC1CCCCC1)NCc1ccccc1` [Compound 21], the inhibition at 50 µM amounted to 63%.

`CCCCCCOCC(=O)NCc1ccccc1` [Compound 22]: the inhibition at 50 µM came out at 47%.

In the case of `O=C(COc1cccc(Cl)c1)NCc1ccco1` [Compound 23], the inhibition at 50 µM was 80%.

For `O=C(COc1ccccc1)NCc1ccccc1` [Compound 24], the inhibition at 50 µM came out at 55%.

As for `O=C(COc1cccc(Cl)c1)NCc1ccccc1` [Compound 25], the inhibition at 50 µM was determined as 50%.

With `O=C(COc1ccc(Cl)cc1)NCc1ccccc1` [Compound 26], the inhibition at 50 µM worked out at 30%.

Staying with this experiment, now noted: compound at 100 μM; 37° C., pH 7.4, PGE2 50 μM, β-NAD 1.5 mM.
`O=C(COCc1ccccc1)NC[C@@H]1CCCO1` (stereo in doubt) [Compound 14, 2-benzyloxy-N-(tetrahydrofuran-2-ylmethyl)acetamide]: the inhibition at 100 µM came out at 50%.

`Cc1cccc(C)c1NC(=O)COc1cccc2cccnc12` [Compound 1, N-(2,6-dimethylphenyl)-2-(quinolin-8-yloxy)acetamide]: the inhibition at 100 µM was found to be 49%.

On to `O=C(COc1cccc2cccnc12)Nc1ccccc1Cl` [Compound 2], for which the inhibition at 100 µM worked out at 115%.

Take `O=C(COc1cccc2cccnc12)Nc1ccccc1C(F)(F)F` [Compound 3, 2-(quinolin-8-yloxy)-N-(2-trifluoromethylphenyl)acetamide]: the inhibition at 100 µM came out at 128%.

With `CCOC(=O)c1ccc(NC(=O)COc2ccc(C(C)=O)cc2)cc1` [Compound 4, 4-[2-(4-Acetylphenoxy)acetylamino]benzoic acid ethyl], the inhibition at 100 µM amounted to 49%.

As for `Cc1nc2cc(OCC(=O)Nc3ccc(OC(F)(F)F)cc3)ccc2s1` [Compound 5, 2-(2-Methyl-benzothiazol-5-yloxy)-N-(4-trifluoromethoxy-phenyl) acetamide], the inhibition at 100 µM worked out at 53%.

On to `O=C(COc1ccc(-n2ccnc2)cc1)Nc1ccccc1Cl` [Compound 6, N-(2-Chloro-phenyl)-2-(4-imidazol-1-yl-phenoxy)-acetamide], for which the inhibition at 100 µM turned out to be 54%.

Regarding `O=C(COc1ccc2c(c1)C(=O)c1ccccc1-2)Nc1cccc(C(F)(F)F)c1` [Compound 7, 2-(9-Oxo-9H-fluoren-2-yloxy)-N-(3-trifluoromethyl-phenyl) acetamide], the inhibition at 100 µM turned out to be 61%.

`O=C(COc1ccc2c(c1)C(=O)c1ccccc1-2)Nc1ccc(C(F)(F)F)cc1` [Compound 8, 2-(9-Oxo-9H-fluoren-2-yloxy)-N-(4-trifluoromethyl-phenyl) acetamide]: the inhibition at 100 µM came to 65%.

`CCCCCCc1ccc(NC(=O)COc2ccc3sc(C)nc3c2)cc1` [Compound 9, N-(4-Hexyl-phenyl)-2-(2-methyl-benzothiazol-5-yloxy) acetamide]: the inhibition at 100 µM was determined as 69%.

With `O=C(COc1ccc(-n2cccc2)cc1)Nc1ccccc1C(F)(F)F` [Compound 10], the inhibition at 100 µM was found to be 71%.

Take `O=C(COc1ccc2oc3ccccc3c2c1)Nc1ccc(OC(F)(F)F)cc1` [Compound 11, 2-(Dibenzofuran-2-yloxy)-N-(4-trifluoromethoxy-phenyl) acetamide]: the inhibition at 100 µM worked out at 74%.

Regarding `O=C(COc1ccc(-n2ccnc2)cc1)Nc1ccccc1C(F)(F)F` [Compound 12, 2-(4-imidazol-1-yl-phenoxy)-N-(2-trifluoromethyl-phenyl) acetamide], the inhibition at 100 µM was determined as 125%.

Turning to `COc1cc(C(C)=O)ccc1OCC(=O)Nc1ccccc1C(F)(F)F` [Compound 13, 2-(4-Acetyl-2-methoxy-phenoxy)-N-(2-trifluoromethyl-phenyl) acetamide], the inhibition at 100 µM amounted to 126%.

With `Cc1ccc(CNC(=O)COCc2ccccc2)o1` [Compound 15, 2-Benzyloxy-N-(5-methyl-furan-2-ylmethyl)-acetamide], the inhibition at 100 µM stood at 51%.

Consider `O=C(COCc1ccccc1)NC1CCCC1` [Compound 16, 2-Benzyloxy-N-cyclopentylacetamide], for which the inhibition at 100 µM turned out to be 76%.

As for `CC(C)(C)c1ccc(OCC(=O)NC[Si](C)(C)C)cc1` [Compound 17, 2-(4-tert-Butyl-phenoxy)-N-trimethylsilanylmethyl-acetamide], the inhibition at 100 µM was found to be 50%.

As to `C[Si](C)(C)CNC(=O)COCc1ccccc1` [Compound 18, 2-Benzyloxy-N-trimethylsilanylmethyl-acetamide], the inhibition at 100 µM worked out at 88%.

Regarding `C[Si](C)(C)CNC(=O)COc1ccccc1` [Compound 19, 2-Phenoxy-N-trimethylsilanylmethyl-acetamide], the inhibition at 100 µM turned out to be 95%.

For the compound `CSCCNC(=O)COc1ccccc1` [Compound 20], the inhibition at 100 µM was determined as 85%.

Turning to `O=C(COCc1ccccc1)NCc1ccccc1` [Compound 27], the inhibition at 100 µM was 48%.

`N#Cc1ccc(-c2ccc(OCC(=O)Nc3cccc([N+](=O)[O-])c3)cc2)cc1` [Compound 28]: the inhibition at 100 µM was found to be 54%.

For the compound `O=C(COc1ccccc1)NC[C@@H]1CCCO1` [Compound 29], the inhibition at 100 µM is 54%.

In the case of `CCCCCCNC(=O)COc1ccccc1` [Compound 31], the inhibition at 100 µM turned out to be 57%.

For `CC(=O)c1ccc(OCC(=O)Nc2ccccc2C(F)(F)F)cc1` [Compound 32], the inhibition at 100 µM worked out at 59%.

Turning to `O=C(COc1ccccc1)NCc1ccccc1` [Compound 33], the inhibition at 100 µM worked out at 61%.

For `O=C(COc1cccc2cccnc12)Nc1cccc([N+](=O)[O-])c1` [Compound 34], the inhibition at 100 µM was found to be 69%.

For `O=C(COc1ccc(-c2ccccc2)cc1)Nc1ccccc1C(F)(F)F` [Compound 35], the inhibition at 100 µM is 70%.
